This note sets out measurements from patent US20220235065A1 (Epizyme, Inc., priority 2016, published 2022).

As usually defined, the IC50 is the concentration that inhibits the measured activity by half.

Counter-ions that a name gives are not always drawn.

Assay [1] has as its target T1, EHMT1 (Homo sapiens, UniProt Q9H9B1).
T1 sequence (Q9H9B1 1-1298): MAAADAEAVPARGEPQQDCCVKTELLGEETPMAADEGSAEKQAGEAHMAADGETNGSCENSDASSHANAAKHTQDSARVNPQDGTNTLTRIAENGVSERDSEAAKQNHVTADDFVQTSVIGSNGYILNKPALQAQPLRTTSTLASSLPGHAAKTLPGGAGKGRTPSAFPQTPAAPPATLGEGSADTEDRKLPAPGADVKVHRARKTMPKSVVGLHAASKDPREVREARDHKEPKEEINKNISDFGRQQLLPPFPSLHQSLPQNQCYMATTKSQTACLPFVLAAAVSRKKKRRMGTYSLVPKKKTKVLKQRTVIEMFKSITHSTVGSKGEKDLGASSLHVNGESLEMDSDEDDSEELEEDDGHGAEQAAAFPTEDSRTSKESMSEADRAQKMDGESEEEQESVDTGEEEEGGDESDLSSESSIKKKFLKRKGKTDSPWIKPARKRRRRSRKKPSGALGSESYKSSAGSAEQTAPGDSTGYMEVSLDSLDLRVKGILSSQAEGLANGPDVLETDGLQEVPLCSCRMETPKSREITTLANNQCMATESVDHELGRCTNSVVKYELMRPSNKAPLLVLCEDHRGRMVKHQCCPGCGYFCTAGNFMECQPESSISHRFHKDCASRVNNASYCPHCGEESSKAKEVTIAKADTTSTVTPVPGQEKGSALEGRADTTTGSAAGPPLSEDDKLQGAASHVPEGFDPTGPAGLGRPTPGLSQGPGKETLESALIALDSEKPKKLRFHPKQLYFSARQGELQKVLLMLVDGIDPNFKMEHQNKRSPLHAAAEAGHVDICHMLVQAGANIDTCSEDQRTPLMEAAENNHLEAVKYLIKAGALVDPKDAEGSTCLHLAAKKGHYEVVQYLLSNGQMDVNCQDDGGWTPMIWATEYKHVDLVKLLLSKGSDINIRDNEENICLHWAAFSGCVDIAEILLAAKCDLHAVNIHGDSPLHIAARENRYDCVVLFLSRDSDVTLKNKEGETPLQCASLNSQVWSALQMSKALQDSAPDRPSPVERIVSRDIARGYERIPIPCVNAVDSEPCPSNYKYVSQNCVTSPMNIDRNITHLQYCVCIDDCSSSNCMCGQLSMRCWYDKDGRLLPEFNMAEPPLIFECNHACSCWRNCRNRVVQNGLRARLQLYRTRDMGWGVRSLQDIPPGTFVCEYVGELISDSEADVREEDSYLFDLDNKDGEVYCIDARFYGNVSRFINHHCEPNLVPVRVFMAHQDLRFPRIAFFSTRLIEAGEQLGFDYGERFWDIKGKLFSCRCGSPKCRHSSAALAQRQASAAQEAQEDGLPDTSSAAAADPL
Kind of assay: EHMT1 PEP (EHMT1 peptide enzyme assay). The class given is biochemical. The settings on record: peptide substrate enzyme assay.

The test system of assay [2] is H3K9me2 in MDA-MB-231 cells. Kind of assay: MDA-MB-231 H3K9me2 in-cell western assay. The class given is cell-based. The following applies: Homo sapiens, read-out: EHMT2 ICW (IC50 μM). The gist of the method: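 MDA-MB-231 cells (3,000/well) exposed to compound for two consecutive 48 h periods at 37 °C, then fixed and stained for H3K9me2, with DRAQ5 as DNA stain and infrared read at 700/800 nm. Percent inhibition was set between DMSO and UNC0638 control wells. IC50 came from triplicate dose–response fits with a four-parameter model, top 100%, bottom 0%.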

With `CNc1cc(C)nc(Nc2ccc(OC)c(-n3cc4c(n3)CCN(C)C4)c2)n1` [Compound 2], the IC50 in assay [1] was less than 0.1 µM; in assay [2], 0.1 to 1 µM.

Regarding `CNc1cc(C)nc(Nc2ccc(OC)c(-n3cc4c(n3)CN(C)CC4)c2)n1` [Compound 3], the values for the concentration for half-maximal inhibition (IC50) in assay [1] and in assay [2] were 0.1 to 1 µM and greater than 10 µM, respectively.

As to `CNc1cc(C)nc(Nc2ccc(OC)c(-n3ccc(CN4CCCC4)n3)c2)n1` [Compound 4, trifluoroacetic acid], the IC50 in assay [1] and in assay [2] was 1 to 10 µM in each case.

`CNc1cc(C)nc(Nc2ccc(OC)c(-n3cc(CN4CCCC4)cn3)c2)n1` [Compound 5, 2-N-[4-methoxy-3-[4-(pyrrolidin-1-ylmethyl)-1H-pyrazol-1-yl]phenyl]-4-N,6-dimethylpyrimidine-2,4-diamine]: the IC50 in assay [1] lay in the range of 0.1 to 1 µM; in assay [2], 1 to 10 µM.

In the case of `CNc1cc(C)nc(Nc2ccc(OC)c(-n3cc4ccncc4n3)c2)n1` [Compound 41], the values for the IC50 in assay [1] and in assay [2] were 1 to 10 µM and greater than 10 µM, respectively.

Consider `CNc1cc(C)nc(Nc2ccc(OC)c(-c3ccc4cc[nH]c4n3)c2)n1` [Compound 42], for which the IC50 in assay [1] and in assay [2] was greater than 10 µM throughout.

Turning to `CNc1cc(C)nc(Nc2ccc(OC)c(-n3cc4c(n3)CCOC4)c2)n1` [Compound 43], the IC50 in assay [1] is 1 to 10 µM; in assay [2], greater than 10 µM.

Regarding `CNc1cc(C)nc(Nc2ccc(OC)c(-c3nc4cnccc4[nH]3)c2)n1` [Compound 47], the IC50 in assay [1] is 1 to 10 µM; in assay [2] it was greater than 10 µM.

Turning to `CNc1cc(C)nc(Nc2ccc(OC)c(-c3cc4cnccc4[nH]3)c2)n1` [Compound 48], the values for the IC50 in assay [1] and in assay [2] were less than 0.1 µM and 1 to 10 µM, respectively.

`CCn1cc(NC(=O)c2cc(Nc3nc(C)cc(NC)n3)ccc2OC)cn1` [Compound 49]: the IC50 in assay [1] and in assay [2] was greater than 10 µM in each case.

With `CNc1cc(C)nc(Nc2cnc(OC)c(-n3cc4c(n3)CCNC4)c2)n1` [Compound 50], the results for the IC50 in assay [1] and in assay [2] were 0.1 to 1 µM and greater than 10 µM, respectively.

`CNc1cc(C)nc(Nc2ccc(OC)c(-n3cc4c(n3)CCCN4)c2)n1` [Compound 56, N2-(4-methoxy-3-(4,5,6,7-tetrahydro-2H-pyrazolo[4,3-b]pyridin-2-yl)phenyl)-N4,6-dimethylpyrimidine-2,4-diamine hydrochloride]: the IC50 in assay [1] was 1 to 10 µM; in assay [2], greater than 10 µM.

For `CNc1cc(C)nc(Nc2cnc(OC)c(-n3cc4c(n3)CCN(C)C4)c2)n1` [Compound 57], the figures for the IC50 in assay [1] and in assay [2] were 0.1 to 1 µM and 1 to 10 µM, respectively.

Regarding `CNc1cc(C)nc(Nc2cnc(OC)c(-c3nc4cnccn4n3)c2)n1` [Compound 60], the IC50 in assay [1] and in assay [2] was 1 to 10 µM throughout.

`CNc1cc(C)nc(Nc2ccc(OC)c(-n3cnc(CN(C)C)n3)c2)n1` [Compound 61]: the IC50 in assay [1] is 1 to 10 µM; in assay [2], greater than 10 µM.

For `CNc1cc(C)nc(Nc2cnc(OC)c(-n3cnc(CN(C)C)n3)c2)n1` [Compound 62], the IC50 in assay [1] was 1 to 10 µM; in assay [2] it was greater than 10 µM.

Turning to `CNc1cc(C)nc(Nc2cc(-n3cc4c(n3)CCN(C)C4)c(OC)cn2)n1` [Compound 65], the IC50 in assay [1] is 1 to 10 µM; in assay [2], greater than 10 µM.

In the case of `CNc1cc(C)nc(Nc2ccc(OC)c(-n3cc(CN(C)C)nn3)c2)n1` [Compound 66], the half-inhibitory concentration (IC50) was less than 0.1 µM in assay [1] and 0.1 to 1 µM in assay [2].

For `CNc1cc(C)nc(Nc2ccc(OC)c(-n3cnc(CN4CCC4)n3)c2)n1` [Compound 67], the IC50 is 1 to 10 µM in assay [1] and greater than 10 µM in assay [2].

For the compound `CNc1cc(C)nc(Nc2ccc(OC)c(-n3cnc(CN4CC(F)C4)n3)c2)n1` [Compound 68], the IC50 in assay [1] and in assay [2] was greater than 10 µM each time.

Take `CNc1cc(C)nc(Nc2ccc(OC)c(-n3cc4c(n3)CCN(C3COC3)C4)c2)n1` [Compound 69]: the IC50 in assay [1] and in assay [2] was greater than 10 µM throughout.

For `CCN1CCc2nn(-c3cc(Nc4nc(C)cc(NC)n4)ccc3OC)cc2C1` [Compound 70], the IC50 was 0.1 to 1 µM in assay [1] and 1 to 10 µM in assay [2].

Turning to `CNc1cc(C)nc(Nc2ccc(OC)c(-c3nnc(CN(C)C)[nH]3)c2)n1` [Compound 73], the IC50 in assay [1] was 1 to 10 µM; in assay [2], greater than 10 µM.

For the compound `CNc1cc(C)nc(Nc2cnc(OC)c(-n3cc(CN(C)C)cn3)c2)n1` [Compound 74], the IC50 is less than 0.1 µM in assay [1] and 0.1 to 1 µM in assay [2].

As for `CNc1cc(C)nc(Nc2ccc(OC)c(-n3ncc4c3CN(C(C)=O)CC4)c2)n1` [Compound 75], the IC50 in assay [1] and in assay [2] was greater than 10 µM each time.

For the compound `CNc1cc(C)nc(Nc2ccc(OC)c(-n3nccc3CNC(C)=O)c2)n1` [Compound 76], the IC50 in assay [1] and in assay [2] was greater than 10 µM in each case.

For `CNc1cc(C)nc(Nc2ccc(OC)c(-c3nnc4n3CCN(C(=O)OC(C)(C)C)C4)c2)n1` [Compound 77], the IC50 in assay [1] and in assay [2] was greater than 10 µM throughout.

On to `CNc1cc(C)nc(Nc2ccc(OC)c(-c3nc4c([nH]3)CNCC4)c2)n1` [Compound 78], for which the IC50 is 1 to 10 µM in assay [1] and greater than 10 µM in assay [2].

Consider `CNc1cc(C)nc(Nc2ccc(OC)c(-c3nc4c([nH]3)CN(C)CC4)c2)n1` [Compound 79], for which the IC50 in assay [1] is 1 to 10 µM; in assay [2] it was greater than 10 µM.

Turning to `CNc1cc(C)nc(Nc2ccc(OC)c(-n3cc(C)c4c3CCN(C)C4)c2)n1` [Compound 81], the IC50 in assay [1] and in assay [2] was 1 to 10 µM each time.

For `CNc1cc(C)nc(Nc2ccc(OC)c(-n3cc4c(n3)CCN(C3CC3)C4)c2)n1` [Compound 82], the IC50 was in the range of 0.1 to 1 µM in assay [1] and 1 to 10 µM in assay [2].

`COc1ncc(Nc2nc(C)cc(NCC3COC3)n2)cc1-n1cc(CN(C)C)nn1` [Compound 86]: the IC50 in assay [1] and in assay [2] was greater than 10 µM in each case.

As to `CNC(=O)CCNc1cc(C)nc(Nc2ccc(OC)c(-n3cc4c(n3)CCN(C)C4)c2)n1` [Compound 87], the IC50 in assay [1] is less than 0.1 µM; in assay [2], 0.1 to 1 µM.

Take `CNC(=O)N1CC(CNc2cc(C)nc(Nc3ccc(OC)c(-n4cc5c(n4)CCN(C)C5)c3)n2)C1` [Compound 88]: the IC50 is 0.1 to 1 µM in assay [1] and greater than 10 µM in assay [2].

For the compound `CNc1cc(C)nc(Nc2ccc(OC)c(-c3cc4cnccn4n3)c2)n1` [Compound 93], the IC50 is 1 to 10 µM in assay [1] and greater than 10 µM in assay [2].

As for `CNc1cc(C)nc(Nc2ccc(OC)c(-n3cc(C)c(CNC(C)=O)n3)c2)n1` [Compound 94], the IC50 in assay [1] was 1 to 10 µM; in assay [2] it was greater than 10 µM.

On to `CNc1cc(C)nc(Nc2ccc(OC)c(-n3ccc(CNC(C)=O)n3)c2)n1` [Compound 95], for which the IC50 in assay [1] and in assay [2] was greater than 10 µM throughout.

As for `CNc1cc(C)nc(Nc2ccc(OC)c(-n3ccc(CN(C)C(C)=O)n3)c2)n1` [Compound 96], the IC50 in assay [1] and in assay [2] was greater than 10 µM each time.

For the compound `CNc1cc(C)nc(Nc2ccc(OC)c(-n3cc4c(C)nccc4n3)c2)n1` [Compound 99], the IC50 in assay [1] and in assay [2] was 1 to 10 µM throughout.

On to `CNc1cc(C)nc(Nc2ccc(OC)c(-n3cc4c(OC)nccc4n3)c2)n1` [Compound 100], for which the results for the IC50 in assay [1] and in assay [2] were greater than 10 µM and 1 to 10 µM, respectively.

Turning to `CNc1cc(C)nc(Nc2ccc(OC)c(-n3cc(C)c(CN(C)C)n3)c2)n1` [Compound 102], the results for the IC50 in assay [1] and in assay [2] were 0.1 to 1 µM and 1 to 10 µM, respectively.

In the case of `CNC(=O)c1cn(-c2cc(Nc3nc(C)cc(NC)n3)ccc2OC)nc1C` [Compound 103], the IC50 in assay [1] and in assay [2] was greater than 10 µM throughout.

Consider `CNC(=O)c1cnn(-c2cc(Nc3nc(C)cc(NC)n3)ccc2OC)c1` [Compound 104], for which the IC50 in assay [1] is 1 to 10 µM; in assay [2] it was greater than 10 µM.

Regarding `CNC(=O)c1c(C)nn(-c2cc(Nc3nc(C)cc(NC)n3)ccc2OC)c1C` [Compound 105], the IC50 in assay [1] and in assay [2] was greater than 10 µM throughout.
